Data published in the kinase profiling compilation of Christmann-Franck et al. (2016).

Experiments:
Experiment in all cases: KINOMEscan competition binding
Settings in all cases: compound 0.1 µM
[1] = target: MST1R (human) (UniProt Q04912)
[2] = target: MINK1 (human) (UniProt Q8N4C8)
[3] = target: ALK (human) (UniProt Q9UM73)
[4] = target: MAP2K5 (human) (UniProt Q13163)
[5] = target: CDK5 (human) (UniProt Q00535)
[6] = target: ULK2 (human) (UniProt Q8IYT8)
[7] = target: ACVR1B (human) (UniProt P36896)
[8] = target: MAPK10 (human) (UniProt P53779)
[9] = target: ROS1 (human) (UniProt P08922)
[10] = target: CAMK1G (human) (UniProt Q96NX5)
[11] = target: STK32C (human) (UniProt Q86UX6)
[12] = target: MYO3B (human) (UniProt Q8WXR4)
[13] = target: EIF2AK1 (human) (UniProt Q9BQI3)
Chain of EIF2AK1 (human) (Q9BQI3 whole entry, looked up): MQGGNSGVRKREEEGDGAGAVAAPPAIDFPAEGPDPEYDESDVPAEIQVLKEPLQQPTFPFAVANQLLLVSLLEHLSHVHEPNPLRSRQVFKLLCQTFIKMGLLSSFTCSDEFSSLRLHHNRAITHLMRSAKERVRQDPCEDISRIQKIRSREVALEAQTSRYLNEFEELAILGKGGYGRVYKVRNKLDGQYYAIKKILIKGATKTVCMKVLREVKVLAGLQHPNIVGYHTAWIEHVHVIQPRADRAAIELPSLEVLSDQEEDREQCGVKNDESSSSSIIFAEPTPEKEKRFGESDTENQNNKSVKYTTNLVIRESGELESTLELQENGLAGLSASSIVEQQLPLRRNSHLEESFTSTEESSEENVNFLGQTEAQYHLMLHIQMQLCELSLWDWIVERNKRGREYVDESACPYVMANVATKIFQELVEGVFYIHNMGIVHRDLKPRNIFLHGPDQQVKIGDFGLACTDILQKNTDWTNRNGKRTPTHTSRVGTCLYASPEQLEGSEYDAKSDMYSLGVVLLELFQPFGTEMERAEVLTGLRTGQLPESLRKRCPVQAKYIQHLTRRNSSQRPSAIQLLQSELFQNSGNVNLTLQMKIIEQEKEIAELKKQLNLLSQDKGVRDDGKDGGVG

[14] = target: TGFBR1 (human) (UniProt P36897)
[15] = target: EIF2AK2 (human) (UniProt P19525)
[16] = target: EPHB2 (human) (UniProt P29323)
[17] = target: CDC42BPG (human) (UniProt Q6DT37)
[18] = target: HIPK1 (human) (UniProt Q86Z02)
[19] = target: STK17B (human) (UniProt O94768)
[20] = target: MAP3K15 (human) (UniProt Q6ZN16)
Chain of MAP3K15 (human) (Q6ZN16 whole entry, looked up): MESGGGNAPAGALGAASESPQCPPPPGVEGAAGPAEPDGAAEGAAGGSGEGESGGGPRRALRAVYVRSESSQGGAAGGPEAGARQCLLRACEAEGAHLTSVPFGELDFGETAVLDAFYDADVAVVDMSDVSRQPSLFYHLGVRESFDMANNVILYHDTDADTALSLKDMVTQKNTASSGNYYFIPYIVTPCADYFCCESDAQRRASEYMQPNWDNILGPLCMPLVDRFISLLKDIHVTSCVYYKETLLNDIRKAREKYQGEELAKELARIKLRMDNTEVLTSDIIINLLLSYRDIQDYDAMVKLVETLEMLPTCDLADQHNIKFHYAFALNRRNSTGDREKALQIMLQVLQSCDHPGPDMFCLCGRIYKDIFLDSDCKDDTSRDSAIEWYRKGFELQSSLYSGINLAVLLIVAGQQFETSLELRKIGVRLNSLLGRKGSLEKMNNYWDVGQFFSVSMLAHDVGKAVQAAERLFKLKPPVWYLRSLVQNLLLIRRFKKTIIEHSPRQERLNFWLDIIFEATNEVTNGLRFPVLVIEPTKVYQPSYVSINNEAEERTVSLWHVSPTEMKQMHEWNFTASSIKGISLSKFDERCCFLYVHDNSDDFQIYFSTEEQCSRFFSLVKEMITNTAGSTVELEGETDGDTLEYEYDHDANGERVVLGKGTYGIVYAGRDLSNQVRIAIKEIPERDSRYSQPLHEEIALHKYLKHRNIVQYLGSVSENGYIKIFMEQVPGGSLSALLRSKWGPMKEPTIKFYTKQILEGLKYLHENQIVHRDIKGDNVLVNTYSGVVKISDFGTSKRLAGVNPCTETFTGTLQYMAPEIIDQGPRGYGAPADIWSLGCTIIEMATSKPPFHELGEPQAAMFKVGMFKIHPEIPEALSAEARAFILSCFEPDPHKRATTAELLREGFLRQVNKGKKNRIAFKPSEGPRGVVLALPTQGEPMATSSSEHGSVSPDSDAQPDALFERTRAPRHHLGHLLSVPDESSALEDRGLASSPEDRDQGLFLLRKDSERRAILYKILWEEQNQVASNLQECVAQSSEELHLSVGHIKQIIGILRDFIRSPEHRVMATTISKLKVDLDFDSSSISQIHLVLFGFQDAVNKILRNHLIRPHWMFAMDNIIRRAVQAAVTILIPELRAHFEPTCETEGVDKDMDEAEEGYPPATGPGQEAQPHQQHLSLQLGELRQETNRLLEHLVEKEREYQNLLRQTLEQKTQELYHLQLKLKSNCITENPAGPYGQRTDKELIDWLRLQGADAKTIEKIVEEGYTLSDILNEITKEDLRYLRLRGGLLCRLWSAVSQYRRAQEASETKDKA

[21] = target: AKT1 (human) (UniProt P31749)
[22] = tested on: RET (human), P07949 [V804M]
[23] = target: MAP3K2 (human) (UniProt Q9Y2U5)
[24] = target: MARK1 (human) (UniProt Q9P0L2)
[25] = target: CLK2 (human) (UniProt P49760)
[26] = target: MAP3K4 (human) (UniProt Q9Y6R4)
[27] = target: DAPK1 (human) (UniProt P53355)
[28] = target: SGK110 (human) (UniProt P0C264)
Chain of SGK110 (human) (P0C264 whole entry, looked up): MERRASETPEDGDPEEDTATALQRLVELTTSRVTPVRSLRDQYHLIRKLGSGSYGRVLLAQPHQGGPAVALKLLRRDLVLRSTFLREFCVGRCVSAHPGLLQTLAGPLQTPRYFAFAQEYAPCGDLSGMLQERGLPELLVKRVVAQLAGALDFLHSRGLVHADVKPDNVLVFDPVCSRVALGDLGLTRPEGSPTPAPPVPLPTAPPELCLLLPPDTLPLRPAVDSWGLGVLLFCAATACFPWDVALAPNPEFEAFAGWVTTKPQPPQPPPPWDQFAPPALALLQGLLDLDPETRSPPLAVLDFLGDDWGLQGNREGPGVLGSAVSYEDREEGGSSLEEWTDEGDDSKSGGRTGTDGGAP

[29] = target: ERBB4 (human) (UniProt Q15303)
[30] = target: IRAK1 (human) (UniProt P51617)
[31] = target: MAP4K4 (human) (UniProt O95819)
[32] = target: WEE2 (human) (UniProt P0C1S8)
Chain of WEE2 (human) (P0C1S8 whole entry, looked up): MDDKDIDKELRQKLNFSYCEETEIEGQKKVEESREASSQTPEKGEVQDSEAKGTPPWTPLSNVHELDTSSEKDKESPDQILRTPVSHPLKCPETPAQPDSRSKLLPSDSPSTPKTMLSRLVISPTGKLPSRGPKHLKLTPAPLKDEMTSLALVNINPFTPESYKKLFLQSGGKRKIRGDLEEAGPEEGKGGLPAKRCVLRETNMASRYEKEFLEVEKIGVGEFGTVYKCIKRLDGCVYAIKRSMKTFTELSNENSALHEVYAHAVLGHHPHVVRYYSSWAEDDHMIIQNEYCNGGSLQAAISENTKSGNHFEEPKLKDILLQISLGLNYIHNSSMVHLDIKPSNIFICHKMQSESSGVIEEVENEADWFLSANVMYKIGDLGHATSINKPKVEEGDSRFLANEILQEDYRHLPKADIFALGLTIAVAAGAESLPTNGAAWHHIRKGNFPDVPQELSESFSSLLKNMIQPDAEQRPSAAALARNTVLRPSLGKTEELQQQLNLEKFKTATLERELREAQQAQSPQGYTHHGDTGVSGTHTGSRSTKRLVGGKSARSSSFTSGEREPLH

[33] = target: CLK3 (human) (UniProt P49761)
[34] = target: CDKL5 (human) (UniProt O76039)
[35] = target: EPHA1 (human) (UniProt P21709)
[36] = target: TNIK (human) (UniProt Q9UKE5)
[37] = target: AURKA (human) (UniProt O14965)
[38] = target: PRKG1 (human) (UniProt Q13976)
[39] = target: PAK6 (human) (UniProt Q9NQU5)
[40] = target: CSNK2A2 (human) (UniProt P19784)

Chain of CDK5 (human) (Q00535 whole entry, looked up): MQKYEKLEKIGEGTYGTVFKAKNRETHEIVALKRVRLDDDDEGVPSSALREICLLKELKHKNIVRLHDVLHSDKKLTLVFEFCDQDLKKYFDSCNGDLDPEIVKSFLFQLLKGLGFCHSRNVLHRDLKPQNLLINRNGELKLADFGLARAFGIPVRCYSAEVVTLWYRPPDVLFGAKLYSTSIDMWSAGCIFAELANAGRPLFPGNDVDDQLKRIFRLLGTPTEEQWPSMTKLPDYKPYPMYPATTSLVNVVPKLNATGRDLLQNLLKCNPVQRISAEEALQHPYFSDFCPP
Chain of ALK (human) (Q9UM73 whole entry, looked up): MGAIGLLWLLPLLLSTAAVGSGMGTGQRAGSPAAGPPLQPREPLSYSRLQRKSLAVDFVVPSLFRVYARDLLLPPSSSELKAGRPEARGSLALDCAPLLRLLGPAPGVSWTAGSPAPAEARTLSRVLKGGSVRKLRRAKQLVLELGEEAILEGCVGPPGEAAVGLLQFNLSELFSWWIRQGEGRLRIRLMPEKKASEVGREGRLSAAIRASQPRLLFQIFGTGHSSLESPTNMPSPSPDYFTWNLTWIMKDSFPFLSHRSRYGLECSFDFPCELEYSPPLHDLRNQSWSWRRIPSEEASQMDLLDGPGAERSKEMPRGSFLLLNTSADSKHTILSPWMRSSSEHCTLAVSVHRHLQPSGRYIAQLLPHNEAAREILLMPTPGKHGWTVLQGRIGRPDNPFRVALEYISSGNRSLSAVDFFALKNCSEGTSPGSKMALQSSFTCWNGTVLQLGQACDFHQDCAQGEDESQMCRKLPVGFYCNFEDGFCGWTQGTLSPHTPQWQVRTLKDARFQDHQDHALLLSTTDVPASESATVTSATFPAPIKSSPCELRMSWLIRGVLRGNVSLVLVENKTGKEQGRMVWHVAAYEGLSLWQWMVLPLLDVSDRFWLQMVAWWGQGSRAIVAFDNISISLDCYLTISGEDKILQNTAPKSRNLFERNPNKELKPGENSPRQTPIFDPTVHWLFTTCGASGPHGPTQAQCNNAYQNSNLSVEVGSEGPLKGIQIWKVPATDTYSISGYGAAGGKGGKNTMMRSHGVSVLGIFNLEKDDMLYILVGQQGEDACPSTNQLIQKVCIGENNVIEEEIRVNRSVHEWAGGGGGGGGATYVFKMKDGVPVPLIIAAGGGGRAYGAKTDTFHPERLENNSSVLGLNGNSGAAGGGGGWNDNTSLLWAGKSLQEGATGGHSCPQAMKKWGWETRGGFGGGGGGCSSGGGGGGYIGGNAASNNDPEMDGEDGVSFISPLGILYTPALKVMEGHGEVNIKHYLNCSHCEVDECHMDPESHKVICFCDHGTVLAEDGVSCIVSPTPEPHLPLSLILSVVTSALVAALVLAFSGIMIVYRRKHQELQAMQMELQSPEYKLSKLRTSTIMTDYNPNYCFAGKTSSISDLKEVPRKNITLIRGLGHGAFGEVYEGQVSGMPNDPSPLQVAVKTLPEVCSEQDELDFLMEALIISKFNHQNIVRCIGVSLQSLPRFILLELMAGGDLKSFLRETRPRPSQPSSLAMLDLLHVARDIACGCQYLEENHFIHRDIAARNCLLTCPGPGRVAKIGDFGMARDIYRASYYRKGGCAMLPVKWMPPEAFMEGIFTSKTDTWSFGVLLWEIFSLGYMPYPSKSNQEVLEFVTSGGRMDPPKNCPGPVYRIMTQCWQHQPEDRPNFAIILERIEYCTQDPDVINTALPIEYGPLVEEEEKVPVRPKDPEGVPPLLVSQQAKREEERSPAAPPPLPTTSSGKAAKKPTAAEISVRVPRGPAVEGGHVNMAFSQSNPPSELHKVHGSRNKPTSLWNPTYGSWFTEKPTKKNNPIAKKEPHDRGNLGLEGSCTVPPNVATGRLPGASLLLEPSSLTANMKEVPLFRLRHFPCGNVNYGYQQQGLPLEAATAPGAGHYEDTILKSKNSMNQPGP

**Q.** How did the kinase still bound, per cent of control [1] turn out when `CCc1ccc(C(=O)Nc2cc(CN3CCN(C)CC3)cc(C(F)(F)F)c2)cc1C#Cc1cnc2ccnn2c1` was run?
**A.** 66%

**Q.** What about the kinase still bound, per cent of control [2] of the same compound?
**A.** 100%

**Q.** What about the kinase still bound, per cent of control [3] of the same compound?
**A.** 100%

**Q.** And the kinase still bound, per cent of control [4]?
**A.** 100%

**Q.** And the kinase still bound, per cent of control [5]?
**A.** 100%

**Q.** What about the kinase still bound, per cent of control [6] of the same compound?
**A.** 86%

**Q.** And the kinase still bound, per cent of control [7]?
**A.** 100%

**Q.** And the kinase still bound, per cent of control [8]?
**A.** 100%

**Q.** And the kinase still bound, per cent of control [9]?
**A.** 78%

**Q.** What about the kinase still bound, per cent of control [10] of the same compound?
**A.** 71%

**Q.** What about the kinase still bound, per cent of control [11] of the same compound?
**A.** 96%

**Q.** And the kinase still bound, per cent of control [12]?
**A.** 100%

**Q.** And the kinase still bound, per cent of control [13]?
**A.** 100%

**Q.** What about the kinase still bound, per cent of control [14] of the same compound?
**A.** 100%

**Q.** And the kinase still bound, per cent of control [15]?
**A.** 83%

**Q.** What about the kinase still bound, per cent of control [16] of the same compound?
**A.** 100%

**Q.** What about the kinase still bound, per cent of control [17] of the same compound?
**A.** 100%

**Q.** What about the kinase still bound, per cent of control [18] of the same compound?
**A.** 100%

**Q.** And the kinase still bound, per cent of control [19]?
**A.** 75%

**Q.** And the kinase still bound, per cent of control [20]?
**A.** 100%

**Q.** What about the kinase still bound, per cent of control [21] of the same compound?
**A.** 81%

**Q.** What about the kinase still bound, per cent of control [22] of the same compound?
**A.** 80%

**Q.** And the kinase still bound, per cent of control [23]?
**A.** 100%

**Q.** And the kinase still bound, per cent of control [24]?
**A.** 74%

**Q.** What about the kinase still bound, per cent of control [25] of the same compound?
**A.** 85%

**Q.** What about the kinase still bound, per cent of control [26] of the same compound?
**A.** 100%

**Q.** What about the kinase still bound, per cent of control [27] of the same compound?
**A.** 100%

**Q.** What about the kinase still bound, per cent of control [28] of the same compound?
**A.** 100%

**Q.** What about the kinase still bound, per cent of control [29] of the same compound?
**A.** 100%

**Q.** What about the kinase still bound, per cent of control [30] of the same compound?
**A.** 100%

**Q.** And the kinase still bound, per cent of control [31]?
**A.** 100%

**Q.** And the kinase still bound, per cent of control [32]?
**A.** 84%

**Q.** What about the kinase still bound, per cent of control [33] of the same compound?
**A.** 91%

**Q.** What about the kinase still bound, per cent of control [34] of the same compound?
**A.** 100%

**Q.** And the kinase still bound, per cent of control [35]?
**A.** 86%

**Q.** And the kinase still bound, per cent of control [36]?
**A.** 84%

**Q.** And the kinase still bound, per cent of control [37]?
**A.** 100%

**Q.** What about the kinase still bound, per cent of control [38] of the same compound?
**A.** 99%

**Q.** What about the kinase still bound, per cent of control [39] of the same compound?
**A.** 81%

**Q.** What about the kinase still bound, per cent of control [40] of the same compound?
**A.** 100%
